# From patent US20120251528A1, “Non-Human Mammal Model Of Human Hematopoietic Cancer” (priority 2009, published 2012)
# “Also recorded” adds a separate entry of the source.
# Key:
# [1] = system: GFP/myc/bcl cells; experiment: F(ab)2 fragments of Alemtuzumab injected to secondary GFP/myc/bcl mice (Fc-dependent effects); assay type: in vivo, mouse; settings: injected day 14 after transplantation, vs Alemtuzumab control
# From the text: (§1) Antibody-bound leukemic cells can also be killed by complement-mediated lysis.
# [2] = system: GMB cells; experiment: Antibody-dependent cellular cytotoxicity with thioglycollate induced macrophages from NSG mice in vitro; assay type: cell-based, human; settings: for macrophage-mediated killing / lysis of leukemia cells: induced peritoneal NSG macrophages
# From the text: as §1
# [3] = system: GFP+ leukemic cells; experiment: Combinatorial treatment of Alemtuzumab and cyclophosphamide in secondary GFP/myc/bcl mice: GFP+ cells per organ; assay type: in vivo, mouse; settings: 9 days after beginning of treatment; for effect on the leukemia in the bone marrow: single treatment
# Procedure: Absolute number of GFP+leukemic cells per organ was assessed by FACS and absolute count calculation.
# Cohorts of secondary recipients were generated and divided into treatment groups as described above.
# [4] = system: leukemic cells; experiment: Alemtuzumab treatment of macrophage-depleted (clodronate liposomes) tumor-bearing mice; assay type: in vivo, mouse; settings: treated 2 days after injection of clodronate liposomes
# [5] = system: ALL-cells; experiment: Direct cytotoxic effects on ALL-cells in vitro; assay type: cell-based, human
# From the text: as §1
# [6] = system: GFP/myc/bcl cells; settings: 5 mg/kg i.v. days 1, 4, 7, two days after completing treatment
# Procedure: Mice were treated 14 days after transplantation while showing leukemic phenotype. […] Response to treatment was assessed after 7 days, a leukemic burden was measured by flow cytometry and calculating absolute cell count per organ.
# (§3) Each mouse in a cohort of secondary mice was injected with ˜10^6 GFP+ cells from the same primary donor mouse. 18-20 days later, mice were divided into 2 groups, and stratified for the density of GFP+ cells found in their peripheral blood (i.e. having the same (or similar) number of GFP+ cells/uL of blood).
# (§4) Two days after completing the course of treatment, several mice were euthanized and the number of GFP+ cells in various organs was determined.
# [7] = system: GFP/myc/bcl cells; experiment: Cumulative survival of secondary GFP/myc/bcl mice, Alemtuzumab vs control; assay type: in vivo, mouse; settings: Log-rank test; FIG. 4C
# Procedure: as §3, §4
# [8] = system: GFP/myc/bcl cells; experiment: Complement-dependent cytotoxicity (CDC) in vitro, Annexin-V-PE/7-AAD flow cytometry; assay type: cell-based, human; settings: 1-100 μg/ml, 48 h
# Procedure: Media were supplemented with human, murine BL6- as NSG-derived serum. Serum-free media and heat-inactivated serum served as control. Cell viability was assessed by Annexin-V-PE/7-AAD flow cytometry after 48 h.
# as §1
# [9] = system: GFP+ leukemia cells; experiment: In vivo binding of GFP/myc/bcl cells by labeled Alemtuzumab, flow cytometry of homogenized organs; design: species or system mouse; settings: 5 mg/kg, 24 h
# Procedure: Organs were homogenized and antibody binding to cells detected by flow cytometry.
# (§2) Mice were sacrificed after 24 h and imaged at an IVIS fluorometer. […] Organs were homogenized and cells from these organs were directly assessed for Alemtuzumab-AlexaFluor750 binding by flow cytometry.
# [10] = Alemtuzumab distribution in vivo, IVIS fluorometry; design: species or system mouse; settings: 24 h; for tissue distribution of fluorescent signal (spleen, liver, bones): 5 mg/kg i.v.
# Procedure: High signal in dissected whole brain.
# as §2
# [11] = listed as Alemtuzumab-AlexaFluor750
compound,measurement,setting,value
F(ab)2 fragments of Alemtuzumab: pepsin-digested F(ab)2-fragments of Alemtuzumab lacking the Fc part,therapeutic effect in secondary GFP/myc/bcl mice,[1],no therapeutic effects
same,therapeutic effect in secondary GFP/myc/bcl mice,[1]; listed as F(ab)2-fragments of Alemtuzumab,no therapeutic effect
same,macrophage-mediated killing / lysis of leukemia cells,[2],no effect
same,macrophage-mediated killing / lysis of leukemia cells,[2]; listed as F(ab)2 fragments,No GFP/myc/bcl-directed killing
O=P1(N(CCCl)CCCl)NCCCO1 (stereo not drawn) [cyclophosphamide],reduction of GFP+ cells found in the brain,[3]; 150 mg/kg i.p. days 1 and 2,~300 fold
same,reduction of GFP+ cells in the peripheral blood,[3]; single agent,as effectively as the treatment using Alemtuzumab alone
same,effect on the leukemia in the bone marrow,[3],neither single treatment had much effect
Alemtuzumab,reduction of leukemic cells in the spleen of macrophage-depleted mice,[4],no reduction of leukemic cells in the spleen
same,direct cytotoxic effects on ALL-cells,[5],no direct cytotoxic effects
same,effect on GFP+ cells in the brain,[3]; single agent,no effect
same,effect on the leukemia in the bone marrow,[3],neither single treatment had much effect
same,time within which macrophages killed GMB cells,[2]; NSG macrophages in the presence of antibody,≤ 13 h
same,macrophage-mediated killing / lysis of leukemia cells,[2],capable of ALL-cell lysis
same,number of GFP+ cells in bone marrow vs control mice,[6]; bone marrow,approximately the same
same,number of GFP+ cells in brain vs control mice,[6]; brain,approximately the same
same,decrease of GFP+ cells in liver vs PBS,[6]; liver,~400 fold
same,decrease of GFP+ cells in peripheral blood vs PBS,[6]; peripheral blood,~30 fold
same,decrease of GFP+ cells in spleen vs PBS,[6]; spleen,~3300 fold
same,survival vs PBS-treated control,[7],survived significantly longer; also recorded: significant prolonged survival
same,"complement-dependent cytotoxicity, human serum",[8]; media with human serum,detected in human serum
same,"complement-dependent cytotoxicity, murine sera",[8]; media with murine BL6- or NSG-derived serum,did not mediate Alemtuzumab mediated tumor cell killing; also recorded: not in murine sera
AlexaFluor750 labeled Alemtuzumab: Alemtuzumab labeled with AlexaFluor 750,"antibody binding to GFP+ leukemia cells, bone marrow",[9],increased AlexaFLuor750 signal
same,"antibody binding to GFP+ leukemia cells, spleen",[9],increased AlexaFLuor750 signal
same,antibody binding to brain-derived leukemia cells,[9],no detection could be detected
same,"antibody binding to GFP+ leukemia cells, bone marrow",[9]; [11],Strong antibody binding
same,"antibody binding to GFP+ leukemia cells, spleen",[9]; [11],Strong antibody binding
same,antibody binding to brain-derived leukemia cells,[9]; [11],no specific binding
same,"tissue distribution of fluorescent signal (spleen, liver, bones)",[10],"Intense staining of spleen, liver and bones"
same,"tissue distribution of fluorescent signal (spleen, liver, bones)",[10]; listed as Labeled Alemtuzumab,focused on spleen and bones
same,fluorescent signal in dissected whole brain,[10]; i.v.,High signal
